Laboratory results taken from ChEMBL document CHEMBL1201862, “PubChem BioAssay data set” (2004).
Active and inactive are the calls of the source.

Legend:
[1] = target: T1, Carboxy-terminal domain RNA polymerase II polypeptide A small phosphatase 1 (Homo sapiens, UniProt Q9GZU7); experiment: inhibitors of CTDSP1, concentration-response testing, biochemical assay, absorbance-based, actives from ultra-high-throughput screening (AID 540297); format: functional
T1 sequence (Q9GZU7 whole entry): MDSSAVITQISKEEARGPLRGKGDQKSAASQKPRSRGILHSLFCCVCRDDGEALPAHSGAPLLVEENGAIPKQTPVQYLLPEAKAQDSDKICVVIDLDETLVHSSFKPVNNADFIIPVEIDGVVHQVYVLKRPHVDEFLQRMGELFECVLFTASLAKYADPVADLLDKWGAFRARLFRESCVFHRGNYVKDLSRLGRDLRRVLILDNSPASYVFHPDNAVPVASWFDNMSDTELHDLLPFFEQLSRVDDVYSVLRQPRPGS

Estrogen receptor = target: T2, Estrogen receptor (Homo sapiens, UniProt P03372);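 also: potency for inhibiting coactivator peptide recruitment to the receptor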
T2 sequence (P03372 whole entry): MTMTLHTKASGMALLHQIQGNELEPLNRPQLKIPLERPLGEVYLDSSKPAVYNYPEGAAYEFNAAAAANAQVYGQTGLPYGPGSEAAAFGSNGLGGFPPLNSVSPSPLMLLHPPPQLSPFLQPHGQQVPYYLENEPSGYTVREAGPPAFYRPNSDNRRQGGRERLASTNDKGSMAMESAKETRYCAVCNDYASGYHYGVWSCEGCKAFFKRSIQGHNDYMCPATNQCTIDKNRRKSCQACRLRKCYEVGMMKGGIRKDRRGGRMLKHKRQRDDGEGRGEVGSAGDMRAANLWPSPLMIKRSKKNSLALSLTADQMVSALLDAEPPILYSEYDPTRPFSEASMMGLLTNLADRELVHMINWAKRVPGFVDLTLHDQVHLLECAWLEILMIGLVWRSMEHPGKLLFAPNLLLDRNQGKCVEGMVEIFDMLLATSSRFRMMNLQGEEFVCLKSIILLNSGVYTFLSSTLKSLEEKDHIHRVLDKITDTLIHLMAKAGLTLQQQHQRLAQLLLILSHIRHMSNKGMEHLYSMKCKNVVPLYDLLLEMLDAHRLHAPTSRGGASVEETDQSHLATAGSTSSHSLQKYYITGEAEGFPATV

[2] = C. albicans growth with fluconazole, confirmation, fluorescence, retest (AID 2467); format: functional, cell-based
[3] = target: Heat shock protein HSP 90-alpha (Homo sapiens, UniProt P07900); format: functional, organism-based
[4] = target: Sphingosine 1-phosphate receptor 4 (Homo sapiens, UniProt O95977); experiment: Fluorescence dose response cell-based high throughput screening assay for antagonists of the Sphingosine 1-Phosphate Receptor 4 (S1P4). [Related pubchem assays: 1524 (Confirmation in triplicates.), 1510 (Primary screen.)]; format: functional
[5] = NIH-3T3 fibroblast cytotoxicity, dose response, cytotoxicity control, cell-based, fluorescence, Alamar Blue, secondary assay (AID 2327); format: functional;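 also: NIH-3T3 mouse fibroblasts cultured with fluconazole at 8 µg/mL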
INS1 = experiment: beta cell apoptosis inhibitors, cytokine rescue, dose response, luminescence, retest (AID 449756); format: functional, cell-based; conditions: Rattus norvegicus;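 also: cell death triggered by IL-1 beta plus TNF-alpha plus IFN-gamma mixture; protective hits raise ATP signal compared with cytokine alone wells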
[6] = target: T3, Heat shock factor protein 1 (Mus musculus, UniProt P38532); experiment: inhibition of MG132-induced HSE-luciferase signal, confirmation, cell-based, NIH3T3, luminescence, dose retest (AID 2382); format: functional;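 also: NIH3T3 fibroblasts with HSF1-driven luciferase reporter stressed by proteasome inhibitor MG132; luminescence from HSF1-driven luciferase expression after 8 hours of MG132 stress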
T3 sequence (P38532 whole entry): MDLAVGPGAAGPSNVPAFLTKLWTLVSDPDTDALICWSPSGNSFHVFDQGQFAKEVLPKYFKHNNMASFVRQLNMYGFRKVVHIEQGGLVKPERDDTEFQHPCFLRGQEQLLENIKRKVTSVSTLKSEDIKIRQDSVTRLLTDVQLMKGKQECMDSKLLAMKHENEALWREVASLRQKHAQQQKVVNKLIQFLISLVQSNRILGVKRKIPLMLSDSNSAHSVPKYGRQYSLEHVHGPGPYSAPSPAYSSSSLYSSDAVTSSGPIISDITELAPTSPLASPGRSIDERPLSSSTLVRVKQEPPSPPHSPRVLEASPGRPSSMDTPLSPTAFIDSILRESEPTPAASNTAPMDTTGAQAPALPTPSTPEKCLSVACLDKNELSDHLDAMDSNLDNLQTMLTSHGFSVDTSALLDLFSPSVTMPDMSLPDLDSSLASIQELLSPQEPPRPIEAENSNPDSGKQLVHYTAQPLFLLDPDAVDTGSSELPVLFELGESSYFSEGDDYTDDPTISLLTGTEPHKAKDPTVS

[7] = microbe, parasite or virus in culture; format: functional; conditions: Mycobacterium tuberculosis
[8] = target: Sphingosine 1-phosphate receptor 1 (Homo sapiens, UniProt P21453); format: functional;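 also: Tango beta-arrestin reporter U2OS cells stimulated with S1P near its EC80; inhibitor potency meaning antagonism of receptor activation by the natural agonist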
Sequence of Sphingosine 1-phosphate receptor 1 (P21453 whole entry): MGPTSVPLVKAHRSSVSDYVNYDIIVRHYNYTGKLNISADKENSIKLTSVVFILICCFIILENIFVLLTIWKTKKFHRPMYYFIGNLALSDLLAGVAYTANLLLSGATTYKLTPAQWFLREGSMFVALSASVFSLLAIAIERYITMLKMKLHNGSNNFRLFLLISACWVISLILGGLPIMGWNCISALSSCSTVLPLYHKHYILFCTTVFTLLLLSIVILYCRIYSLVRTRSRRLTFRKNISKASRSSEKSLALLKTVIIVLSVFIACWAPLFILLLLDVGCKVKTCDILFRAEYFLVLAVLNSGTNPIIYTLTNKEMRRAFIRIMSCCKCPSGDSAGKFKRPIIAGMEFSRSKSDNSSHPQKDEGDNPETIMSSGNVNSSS

Sequence of Sphingosine 1-phosphate receptor 4 (O95977 whole entry): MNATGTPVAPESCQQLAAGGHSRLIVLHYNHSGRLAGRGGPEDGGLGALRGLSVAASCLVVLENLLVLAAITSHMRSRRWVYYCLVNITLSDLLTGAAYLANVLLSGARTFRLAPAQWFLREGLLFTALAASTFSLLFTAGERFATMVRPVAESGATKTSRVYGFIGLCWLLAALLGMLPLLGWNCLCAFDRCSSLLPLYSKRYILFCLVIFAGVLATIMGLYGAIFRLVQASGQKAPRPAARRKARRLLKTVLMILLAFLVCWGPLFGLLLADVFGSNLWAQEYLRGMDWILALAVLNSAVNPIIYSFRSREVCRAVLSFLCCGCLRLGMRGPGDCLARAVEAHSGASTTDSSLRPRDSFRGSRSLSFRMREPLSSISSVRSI

For `CCCN(CCC)S(=O)(=O)c1ccc(NC(=O)Cc2cccs2)cc1`, the IC50 [1] was 9830 nM (active) and the IC50 (Estrogen receptor) was 16700 nM (active).
In the case of `Cc1cc([N+](=O)[O-])c2ccccc2[n+]1[O-]`, the EC50 [2] is reported as 97 nM (active), the AC50 [3] is reported as < 195 nM (active) and the IC50 [4] is reported as 220 nM (active). For the same molecule, the EC50 [5] was 4650 nM (inconclusive), the AC50 (INS1) was 2240 nM (active) and the EC50 [6] was 6350 nM (active). For the same molecule, the CC50 [7] was < 160 nM (active) and the IC50 [8] was 3280 nM (active).
